Biological target: T1, FPR2 (Homo sapiens, UniProt P25090)
T1 construct: expressed in transfected cells; host or cells: HEK-Gα16, CHO-Gα16 and HEK-Gqi5 cells stably expressing FPR2
T1 sequence (P25090 1-351): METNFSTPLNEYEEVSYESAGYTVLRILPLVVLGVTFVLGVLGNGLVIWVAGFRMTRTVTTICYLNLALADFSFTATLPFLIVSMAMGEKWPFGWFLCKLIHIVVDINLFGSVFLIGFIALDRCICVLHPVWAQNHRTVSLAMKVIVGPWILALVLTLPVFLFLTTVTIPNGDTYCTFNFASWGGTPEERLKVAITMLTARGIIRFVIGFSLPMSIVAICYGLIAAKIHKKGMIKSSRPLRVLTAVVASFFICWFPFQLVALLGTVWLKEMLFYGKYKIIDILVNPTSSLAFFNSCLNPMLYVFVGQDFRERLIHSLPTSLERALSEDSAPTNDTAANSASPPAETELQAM
Assay: FPR2 compound-induced calcium activity assay on FLIPR Tetra
Type: cell-based
Conditions: HEK-Gα16, CHO-Gα16 or HEK-Gqi5 cells stably expressing FPR2, tested at 0.61 to 10,000 nM; for Emax: read-out: % Efficacy
Procedure: Compounds of Formula I modulate FPR activity. […] HEK-Gα16 and CHO-Gα16 cells stably expressing FPR2 were cultured in (F12, 10% FBS, 1% PSA, 400 μg/ml geneticin and 50 μg/ml hygromycin) and HEK-Gqi5 cells stable expressing FPR2 were cultured in (DMEM high glucose, 10% FBS, 1% PSA, 400 μg/ml geneticin and 50 μg/ml hygromycin). In general, the day before the experiment, 18,000 cells/well were plated in a 384-well clear bottom poly-D-lysine coated plate. The following day, the screening compound-induced calcium activity was assayed on the FLIPR^Tetra. The drug plates were prepared in 384-well microplates using the EP3 and the MuItiPROBE robotic liquid handling systems. Compounds were tested at concentrations ranging from 0.61 to 10,000 nM. Results are expressed as EC50 (nM) and efficacy values.

In the case of `CCCN(NC(=O)Nc1ccc(Br)cc1F)C(=O)CCC(=O)O` [Compound 17, 4-{2-[(4-bromo-2-fluorophenyl)carbamoyl]-1-propylhydrazinyl}-4-oxobutanoic acid], the EC50 is reported as 29 nM and the Emax is reported as 100%.

`CCOC(=O)CC(=O)NNC(=O)Nc1ccc(Br)cc1` [Compound 1, Ethyl 3-{2[(4-bromophenyl)carbamoyl]hydrazinyl}-3-oxopropanoate] gave an EC50 of 750 nM and an Emax of 100%.

`CCCN(NC(=O)Nc1ccc(C(F)(F)F)cc1)C(=O)CCC(=O)OCC` [Compound 13, ethyl 4-oxo-4-(1-propyl-2-{[4-(trifluoromethyl)phenyl]carbamoyl}hydrazinyl)butanoate] was tested, and the EC50 was 35 nM and the Emax was 98%.

Work on `CC(C)(C(=O)O)C(=O)NNC(=O)Nc1ccc(Br)cc1` [Compound 2, 3-{2-[(4-Bromophenyl)carbamoyl]hydrazinyl}-2,2-dimethyl-3-oxopropanoic Acid] yielded an EC50 of 5210 nM and an Emax of 73%.

Work on `CCOC(=O)CCC(=O)N(CC(C)C)NC(=O)Nc1ccc(C(F)(F)F)cc1` [Compound 11, ethyl 4-[1-(2-methylpropyl) 2{[4-(trifluoromethyl)phenyl]carbamoyl}hydrazinyl]-4-oxobutanoate] yielded an EC50 of 57 nM and an Emax of 94%.

Molecule `CC(C)CN(NC(=O)Nc1ccc(Br)cc1F)C(=O)CCC(=O)O` [Compound 10, 4-{2-[(4-bromo-2-fluorophenyl)carbamoyl]-1-(2-methylpropyl)hydrazinyl}-4-oxobutanoic acid] has an EC50 of 339 nM and an Emax of 99%.

`CCCN(NC(=O)Nc1ccc(C(F)(F)F)cc1)C(=O)CCC(=O)O` [Compound 14, 4-oxo-4-(1-propyl-2-{[4-(trifluoromethyl)phenyl]carbamoyl}hydrazinyl)butanoic acid] was tested, and the EC50 was 28 nM and the Emax was 97%.

`CCOC(=O)CCC(=O)N(CC(C)C)NC(=O)Nc1ccc(Br)cc1` [Compound 7, Ethyl 4-{2-[(4-Bromophenyl)carbamoyl]-1-(2-methylpropyl)hydrazinyl}-4-oxobutanoate] gave an EC50 of 31 nM and an Emax of 100%.

`CCCC(CCC)(CC(=O)NNC(=O)Nc1ccc(Br)cc1)C(=O)OC` [Compound 4, methyl 2-(2-{2-[(4-bromophenyl)carbamoyl]hydrazinyl}-2-oxoethyl)-2-propylpentanoate] was tested, and the EC50 was 46 nM and the Emax was 89%.

Work on `CC(C)CN(NC(=O)Nc1ccc(C(F)(F)F)cc1)C(=O)CCC(=O)O` [Compound 12, 4-[1-(2-methylpropyl)-2-{[4-(trifluoromethyl)phenyl]carbamoyl}hydrazinyl]-4-oxobutanoic acid] yielded an EC50 of 21 nM and an Emax of 98%.

`CCOC(=O)CCC(=O)N(CC(C)C)NC(=O)Nc1ccc(Br)cc1F` [Compound 9, ethyl 4-{2-[(4-bromo-2-fluorophenyl)carbamoyl]-1-(2-methylpropyl)hydrazinyl}-4-oxobutanoate] was tested, and the EC50 was 3660 nM and the Emax was 76%.

`CCCCN(NC(=O)Nc1ccc(Br)cc1)C(=O)CCC(=O)OCC` [Compound 15, ethyl 4-{2-[(4-bromophenyl)carbamoyl]-1-butylhydrazinyl}-4-oxobutanoate] was tested, and the EC50 was 34 nM and the Emax was 100%.

Work on `CCCN(NC(=O)Nc1ccc(Br)cc1F)C(=O)CCC(=O)OCC` [Compound 16, ethyl 4-{2-[(4-bromo-2-fluorophenyl)carbamoyl]-1-propylhydrazinyl}-4-oxobutanoate] yielded an EC50 of 34 nM and an Emax of 100%.

`CCC(CC)(CC(=O)NNC(=O)Nc1ccc(Br)cc1)C(=O)O` [Compound 6, 4-{2-[(4-bromophenyl)carbamoyl]hydrazinyl}-2,2-diethyl-4-oxobutanoic acid] showed an EC50 of 421 nM and an Emax of 73%.

`CC(C)(CC(=O)NNC(=O)Nc1ccc(Br)cc1)C(=O)O` [Compound 3, 4-{2-[(4-bromophenyl)carbamoyl]hydrazinyl}-2,2-dimethyl-4-oxobutanoic acid] was tested, and the EC50 was 602 nM and the Emax was 86%.

`CCCC(CCC)(CC(=O)NNC(=O)Nc1ccc(Br)cc1)C(=O)O` [Compound 5, 2-[2-(2-{[(4-Bromophenyl)amino]carbonyl}hydrazino)-2-oxoethyl]-2-propylpentanoic Acid] showed an EC50 of 215 nM and an Emax of 87%.

`CC(C)CN(NC(=O)Nc1ccc(Br)cc1)C(=O)CCC(=O)O` [Compound 8, 4-{2-[(4-Bromophenyl)carbamoyl]-1-(2-methylpropyl)hydrazinyl}-4-oxobutanoic Acid] showed an EC50 of 12 nM and an Emax of 100%.

From patent US9663457B2, “Carbamoyl hydrazine derivatives as formyl peptide modulators” (Allergan, Inc., priority 2014, dated 2017)
